Laboratory results as given in paper PMC3570346, “PET imaging of brain inflammation during early epileptogenesis in a rat model of temporal lobe epilepsy” (EJNMMI Research, 2012).

Target: T1, TSPO (Rattus norvegicus, UniProt P16257)
T1 construct: from tissue; host or cells: coronal cryostat sections (20 μm) of frozen rat brain, control and KASE animals
Experiment: In vitro [^125I]-CLINDE autoradiography on coronal brain sections (post-mortem)
Format: binding
Procedure: TSPO binding density was assessed using the selective TSPO ligands, ^125I]-CLINDE and ^18 F]-PBR111 as described previously. Briefly, adjacent sets of unfixed […] sections were incubated in triplicate with 3 nM ^125I]-CLINDE or 4 nM ^18F]-PBR111 in 50 mM Tris buffer (pH 7.4 at 4°C) for 1 h. Non-specific binding was assessed with co-incubation with 10 μM PK11195 (Sigma-Aldrich). Sections were washed in ice cold Tris buffer (2 × 2 min), then distilled water (1 min), before being air dried on a slide warmer at 37°C. They were exposed to film, with ^14C] polymer standards (ARC, USA) for calibration of optical density to becquerel per milligram activity. Films were scanned using a BioRad GS-800 calibrated densitometer (Bio-Rad Laboratories, Hercules, CA, USA), and exposure times were chosen such that the optical density range of the sections was within the pseudolinear response range of the film.
Autoradiographic images were calibrated (cubic fit between optical density and [^14C]-standard values) and quantified using ImageJ ( http://rsbweb.nih.gov/ij/). […] Regions of interest were drawn blinded for control and KASE groups, converted to kilobecquerel per milligram and specific binding calculated.
Coronal brain sections (20 μm, −3.24 mm from bregma according to [21]) were cut using a cryostat, thaw-mounted onto Polysine® microscope slides (LabServ, Australia), and stored at −80°C. During cutting, pictures were taken in EB-injected animals to evaluate extravasation macroscopically. Adjacent sets of unfixed rat brain sections were analysed in triplicate for quantitative autoradiography for TSPO with ^125I]-CLINDE, OX-42 (microglial activation) immunohistochemistry and cresyl violet (cell loss).
Methodology regarding immunohistochemistry was performed as above. Semi-quantitative analysis included visual scoring of OX-42 signal as follows: mild (+), moderate (++) and intense (+++) OX-42 signals. For autoradiography, a preincubation step of 15 min in Tris buffer (50 mM, pH 7.4) was added to remove exogenous TSPO ligand. TSPO binding was assessed as described above in the cortex, corpus callosum, hippocampus and hippocampal subregions (CA1, CA2 and CA3/hilus), thalamus, hypothalamus, amygdala and piriform cortex. Histological verification of cell loss in hippocampal pyramidal cell layers (CA1, CA2, CA3 and hilus) was performed on Nissl-stained sections (using Cresyl Echt Violet) blinded for the treatment group.

T1 sequence (P16257 whole entry): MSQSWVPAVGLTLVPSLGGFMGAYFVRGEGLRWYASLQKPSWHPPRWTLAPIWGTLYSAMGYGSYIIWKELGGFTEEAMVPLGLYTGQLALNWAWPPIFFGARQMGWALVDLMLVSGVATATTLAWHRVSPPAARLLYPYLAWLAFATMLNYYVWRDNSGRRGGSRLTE

Structure (SMILES): CCN(CC)C(=O)Cc1c(-c2ccc(I)cc2)nc2ccc(Cl)cn12 [[^125I]-CLINDE]
- % increase of specific binding, KASE vs control (Hippocampus (CA1)): 613%
- % increase of specific binding, KASE vs control (Hippocampus (CA2)): 491%
- % increase of specific binding, KASE vs control (Hippocampus (CA3)/hilus): 860%
- % increase of specific binding, KASE vs control (Hippocampus (whole, dorsal)): 226%
